According to patent publication US9963448B2, “Bicyclic inhibitors of PAD4” (Padlock Therapeutics, Inc., priority 2015, dated 2018):
Read-outs that look alike come from different tables or passages of the source.

Tests used:
hPAD4 = hPAD4 (Homo sapiens, UniProt Q9UM07); assay: hPAD4 RFMS (RapidFire mass spectrometry) PAD4 inhibition assay; assay type: biochemical; details: hPAD4 enzyme, RFMS readout;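 as to hPAD4 RFMS pIC50: grade E means pIC50 at most 4 and F means pIC50 4.0 to 5.0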
Experimental: (§1) Compounds of the present invention were assayed as inhibitors of PAD4 using the assay protocol described below.
(§2) Compound stock solutions were stored at RT. […] Final assay conditions were as follows:
(§3) Total incubation time: 65 mins at 37° C.
(§4) Stop solution: 40 μl 5% TCA in ACN
(§5) The compound numbers correspond to the compound numbers in Table 1. […] The term pIC50=−log(IC50). […] “NA” stands for “not assayed.”

mPAD4 = mPAD4 (Mus musculus, UniProt Q9Z183); assay: mPAD4 RFMS PAD4 inhibition assay; assay type: biochemical; details: mPAD4, RFMS readout;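 as to mPAD4 RFMS pIC50: grade E means pIC50 at most 4 and F means pIC50 4.0 to 5.0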
Chain of mPAD4 (Q9Z183 whole entry): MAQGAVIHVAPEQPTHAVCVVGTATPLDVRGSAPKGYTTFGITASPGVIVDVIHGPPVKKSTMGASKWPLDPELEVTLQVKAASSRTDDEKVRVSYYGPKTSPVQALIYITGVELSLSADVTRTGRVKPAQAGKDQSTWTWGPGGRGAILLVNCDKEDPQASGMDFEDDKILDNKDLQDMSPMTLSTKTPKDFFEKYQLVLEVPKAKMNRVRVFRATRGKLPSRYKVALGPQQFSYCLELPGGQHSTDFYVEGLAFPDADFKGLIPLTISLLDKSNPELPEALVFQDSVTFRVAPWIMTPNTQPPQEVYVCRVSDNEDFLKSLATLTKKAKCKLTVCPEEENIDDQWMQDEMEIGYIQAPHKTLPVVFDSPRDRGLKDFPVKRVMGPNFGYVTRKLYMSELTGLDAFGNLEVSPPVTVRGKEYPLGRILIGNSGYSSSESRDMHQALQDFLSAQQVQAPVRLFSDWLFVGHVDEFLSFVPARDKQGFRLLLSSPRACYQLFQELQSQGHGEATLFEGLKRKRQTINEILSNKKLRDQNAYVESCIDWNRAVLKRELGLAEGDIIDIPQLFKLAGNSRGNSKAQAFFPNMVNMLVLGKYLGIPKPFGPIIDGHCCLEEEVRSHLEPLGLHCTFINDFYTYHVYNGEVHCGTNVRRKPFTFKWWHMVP
Experimental: as §1, §2, §3, §4, §5

[1] = pIC50=−log(IC50), read-out: hPAD4 RFMS pIC50 (converted)
[2] = pIC50=−log(IC50), read-out: mPAD4 RFMS pIC50 (converted)

Chain of hPAD4 (Q9UM07 whole entry): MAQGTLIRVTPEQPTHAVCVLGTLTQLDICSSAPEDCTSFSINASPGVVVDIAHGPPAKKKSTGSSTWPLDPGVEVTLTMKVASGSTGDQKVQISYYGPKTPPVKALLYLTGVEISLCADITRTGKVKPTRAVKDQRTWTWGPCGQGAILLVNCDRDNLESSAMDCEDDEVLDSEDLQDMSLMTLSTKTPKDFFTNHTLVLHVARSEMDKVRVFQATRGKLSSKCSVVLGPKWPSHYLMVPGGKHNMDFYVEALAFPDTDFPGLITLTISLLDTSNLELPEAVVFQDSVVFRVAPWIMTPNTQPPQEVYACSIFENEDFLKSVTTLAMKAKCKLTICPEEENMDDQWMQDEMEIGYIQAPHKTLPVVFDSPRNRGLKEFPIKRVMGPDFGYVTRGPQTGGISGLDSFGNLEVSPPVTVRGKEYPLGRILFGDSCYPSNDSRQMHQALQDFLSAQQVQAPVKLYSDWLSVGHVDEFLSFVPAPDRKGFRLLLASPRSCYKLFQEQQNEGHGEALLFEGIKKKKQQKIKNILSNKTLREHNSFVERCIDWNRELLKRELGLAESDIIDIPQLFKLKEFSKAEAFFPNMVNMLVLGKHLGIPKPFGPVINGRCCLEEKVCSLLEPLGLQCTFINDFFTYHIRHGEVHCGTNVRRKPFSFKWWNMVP

## COc1cc(C(=O)N2C[C@H]3CC[C@@H]2[C@@H]3N)cc2nc(-c3cc4ccc(C(C)(C)O)nc4n3CC3CC3)n(C)c12 [Compound I-210, 2-(2-{5-[(1R,4R,7R)-7-Amino-2-azabicyclo[2.2.1]heptane-2-carbonyl]-7-methoxy-1-methyl-1H-1,3-benzodiazol-2-yl}-1-(cyclopropylmethyl)-1H-pyrrolo[2,3-b]pyridin-6-yl)propan-2-ol]
hPAD4; [1]
  IC50: < 1000 nM
hPAD4; read-out: hPAD4 RFMS IC50
  IC50: < 1000 nM
mPAD4; [2]
  IC50: < 1000 nM
mPAD4; read-out: mPAD4 RFMS IC50
  IC50: < 1000 nM

## COCCn1c(-c2nc3cc(C(=O)N4C[C@@H](N)CC[C@H]4C)cc(OC)c3n2C)cc2cccnc21 [Compound I-190]
hPAD4; [1]
  IC50: 1000 to 10000 nM
hPAD4; read-out: hPAD4 RFMS IC50
  IC50: 1000 to 5000 nM
mPAD4; [2]
  IC50: 1000 to 10000 nM
mPAD4; read-out: mPAD4 RFMS IC50
  IC50: 1000 to 5000 nM

## COc1cc(C(=O)N2CCC[C@@H](N)C2)cc2nc(-c3cc4cc(C#N)cnc4n3CC3CC3)n(C)c12 [Compound I-132]
hPAD4; [1]
  IC50: < 1000 nM
hPAD4; read-out: hPAD4 RFMS IC50
  IC50: < 1000 nM
mPAD4; [2]
  IC50: 1000 to 10000 nM
mPAD4; read-out: mPAD4 RFMS IC50
  IC50: 1000 to 5000 nM

## Cn1c(-c2cc3cccnc3n2CC2CC2)nc2cc(C(=O)N3CCC[C@@H](N)C3)cc(F)c21 [Compound I-166]
hPAD4; [1]
  IC50: < 1000 nM
hPAD4; read-out: hPAD4 RFMS IC50
  IC50: < 1000 nM
mPAD4; [2]
  IC50: 1000 to 10000 nM
mPAD4; read-out: mPAD4 RFMS IC50
  IC50: 1000 to 5000 nM

## CCn1c(-c2nc3cc(C(=O)N4CCC[C@@H](N)C4)cc(F)c3n2C)cc2cccnc21 [Compound I-164]
hPAD4; [1]
  IC50: 1000 to 10000 nM
hPAD4; read-out: hPAD4 RFMS IC50
  IC50: 1000 to 5000 nM
mPAD4; [2]
  IC50: 1000 to 10000 nM
mPAD4; read-out: mPAD4 RFMS IC50
  IC50: 5000 to 10000 nM

## COc1cc(C(=O)N2C[C@H]3CC[C@@H]2[C@@H]3N)cc2nc(-c3cc4cccnc4n3CC3CC3)n(C[C@@H]3CCOC3)c12 [Compound I-232]
hPAD4; [1]
  IC50: < 1000 nM
hPAD4; read-out: hPAD4 RFMS IC50
  IC50: < 1000 nM
mPAD4; [2]
  IC50: < 1000 nM
mPAD4; read-out: mPAD4 RFMS IC50
  IC50: < 1000 nM

## Cn1c(-c2cc3cccnc3n2CC2CC2)nc2cc(C(=O)N3CCC[C@@H](N)C3)cc(OCC(F)(F)F)c21 [Compound I-59]
hPAD4; [1]
  IC50: 1000 to 10000 nM
hPAD4; read-out: hPAD4 RFMS IC50
  IC50: 1000 to 5000 nM
mPAD4; [2]
  IC50: < 1000 nM
mPAD4; read-out: mPAD4 RFMS IC50
  IC50: < 1000 nM

## COc1cc(C(=O)N2CCC[C@@H](N)C2)cc2nc(-c3cc4cccnc4n3CC3CC3)n(CC3CC(C)(O)C3)c12 (stereo partly drawn) [Compound I-114]
hPAD4; [1]
  IC50: < 1000 nM
hPAD4; read-out: hPAD4 RFMS IC50
  IC50: < 1000 nM
mPAD4; [2]
  IC50: < 1000 nM
mPAD4; read-out: mPAD4 RFMS IC50
  IC50: < 1000 nM

## Cn1c(-c2cc3cncnc3n2CC2CC2)nc2cc(C(=O)N3CCC4CCNC4C3)ccc21 (stereo not drawn) [Compound I-9, 2-[7-(Cyclopropylmethyl)-7H-pyrrolo[2,3-d]pyrimidin-6-yl]-1-methyl-5-{octahydro-1H-pyrrolo[2,3-c]pyridine-6-carbonyl}-1H-1,3-benzodiazole]
hPAD4; [1]
  IC50: 1000 to 10000 nM
hPAD4; read-out: hPAD4 RFMS IC50
  IC50: 5000 to 10000 nM
mPAD4; [2]
  IC50: 10000 to 100000 nM
mPAD4; read-out: mPAD4 RFMS IC50
  IC50: > 10000 nM

## COc1cc(C(=O)N2C[C@H]3CC4OC(=O)N[C@H]3[C@@H]42)cc2nc(-c3cc4cccnc4n3CC3CC3)n(C)c12 [Compound I-187, (1S,2R,8R)-10-{2-[1-(Cyclopropylmethyl)-1H-pyrrolo[2,3-b]pyridin-2-yl]-7-methoxy-1-methyl-1H-1,3-benzodiazole-5-carbonyl}-5-oxa-3,10-diazatricyclo[4.4.0.0^2,8]decan-4-one]
hPAD4; [1]
  IC50: 10000 to 100000 nM
hPAD4; read-out: hPAD4 RFMS IC50
  IC50: > 10000 nM
mPAD4; [2]
  IC50: 10000 to 100000 nM
mPAD4; read-out: mPAD4 RFMS IC50
  IC50: > 10000 nM

## COc1cc(C(=O)N2C[C@H]3CC[C@@H]2[C@@H]3N)cc2nc(-c3cc4cccnc4n3CC3CC3)n(CC[S+](C)[O-])c12 (stereo partly drawn) [Compound I-213, (1R,4R,7R)-2-{2-[1-(Cyclopropylmethyl)-1H-pyrrolo[2,3-b]pyridin-2-yl]-1-(2-methanesulfinylethyl)-7-methoxy-1H-1,3-benzodiazole-5-carbonyl}-2-azabicyclo[2.2.1]heptan-7-amine]
hPAD4; [1]
  IC50: < 1000 nM
hPAD4; read-out: hPAD4 RFMS IC50
  IC50: < 1000 nM
mPAD4; [2]
  IC50: < 1000 nM
mPAD4; read-out: mPAD4 RFMS IC50
  IC50: < 1000 nM

## COc1cc(C(=O)N2C[C@@H]3COC[C@]3(CN)C2)cc2nc(-c3cc4cccnc4n3CC3CC3)n(C)c12 [Compound I-126]
hPAD4; [1]
  IC50: 10000 to 100000 nM
hPAD4; read-out: hPAD4 RFMS IC50
  IC50: > 10000 nM
mPAD4; [2]
  IC50: 10000 to 100000 nM
mPAD4; read-out: mPAD4 RFMS IC50
  IC50: > 10000 nM

## CCn1c(-c2cc3cccnc3n2CC2CC2)nc2cc(C(=O)N3CCC[C@@H](N)C3)cc(OC)c21 [Compound I-119, (3R)-1-{2-[1-(cyclopropylmethyl)-1H-pyrrolo[2,3-b]pyridin-2-yl]-1-ethyl-7-methoxy-1H-1,3-benzodiazole-5-carbonyl}piperidin-3-amine]
hPAD4; [1]
  IC50: < 1000 nM
hPAD4; read-out: hPAD4 RFMS IC50
  IC50: < 1000 nM
mPAD4; [2]
  IC50: < 1000 nM
mPAD4; read-out: mPAD4 RFMS IC50
  IC50: < 1000 nM

## COc1cc(C(=O)N2C[C@@H](N)CC[C@H]2CO)cc2nc(-c3cc4cccnc4n3CC3CC3)n(C)c12 (single isomer, unassigned) [Compound I-229]
hPAD4; [1]
  IC50: 10000 to 100000 nM
hPAD4; read-out: hPAD4 RFMS IC50
  IC50: > 10000 nM
mPAD4; [2]
  IC50: 1000 to 10000 nM
mPAD4; read-out: mPAD4 RFMS IC50
  IC50: 5000 to 10000 nM

## COc1ccc2cc(-c3nc4cc(C(=O)N5CC[C@H](OC)[C@H](N)C5)ccc4n3C)n(CC3CC3)c2n1 [Compound I-130]
hPAD4; [1]
  IC50: < 1000 nM
hPAD4; read-out: hPAD4 RFMS IC50
  IC50: < 1000 nM
mPAD4; [2]
  IC50: 1000 to 10000 nM
mPAD4; read-out: mPAD4 RFMS IC50
  IC50: 1000 to 5000 nM

## CCn1c(-c2nc3cc(C(=O)N4C[C@H]5CC[C@@H]4[C@@H]5N)cc(OC)c3n2C[C@H]2C[C@@](C)(O)C2)cc2cccnc21 [Compound I-155]
hPAD4; [1]
  IC50: < 1000 nM
hPAD4; read-out: hPAD4 RFMS IC50
  IC50: < 1000 nM
mPAD4; [2]
  IC50: < 1000 nM
mPAD4; read-out: mPAD4 RFMS IC50
  IC50: < 1000 nM

## CCn1c(-c2nc3cc(C(=O)N4C[C@H]5CC[C@@H]4[C@@H]5N)cc(OC)c3n2C)cc2ccc(C)nc21 [Compound I-160]
hPAD4; [1]
  IC50: < 1000 nM
hPAD4; read-out: hPAD4 RFMS IC50
  IC50: < 1000 nM
mPAD4; [2]
  IC50: < 1000 nM
mPAD4; read-out: mPAD4 RFMS IC50
  IC50: < 1000 nM

## CCn1c(-c2nc3cc(C(=O)N4C[C@H]5CC[C@@H]4[C@@H]5N)cc(OC)c3n2C[C@H]2C[C@@](C)(OC)C2)cc2ccc(OC)nc21 [Compound I-206]
hPAD4; [1]
  IC50: < 1000 nM
hPAD4; read-out: hPAD4 RFMS IC50
  IC50: < 1000 nM
mPAD4; [2]
  IC50: < 1000 nM
mPAD4; read-out: mPAD4 RFMS IC50
  IC50: < 1000 nM
